The nature of this assay: Inhibition of hypoxia-induced HIF1alpha protein accumulation in human Hep3B cells treated for 30 mins measured after 12 hrs by Western blot analysis. For orientation: Immunoblotting shows a protein as a band on a membrane.

As usually defined, the IC50 is the concentration at which inhibition is half-maximal. A high value points to a need for much substance. Turning to `CC1(C)Oc2cc3oc(-c4cc(O)cc(O)c4)cc3cc2C[C@H]1O` [(-)-Moracin P], it took 0.65 nM to reach half-maximal inhibition (IC50).
With `CC1=C[C@H]2c3c(O)cc(-c4cc5ccc(O)cc5o4)cc3O[C@@]3(c4ccc(O)cc4O)Oc4cc(O)ccc4[C@H](C1)[C@@H]23` [CHEBI:2544] the figure was 2600 nM; with `COc1c(O)cc2oc(-c3cc(O)cc(O)c3)cc2c1CC(=O)C(C)C` [Moracin Q], 5880 nM; with `C[C@@]12C=C(c3c(O)cc(-c4cc5ccc(O)cc5o4)cc3O)C[C@@H](C1)c1ccc(O)cc1O2` [Mulberrofuran H], 140 nM.
Regarding `CC(C)=CC[C@@]12Oc3cc(O)c([C@H]4C=C(C)C[C@H](c5ccc(O)cc5O)[C@H]4C(=O)c4ccc(O)cc4O)c(O)c3C(=O)[C@]1(O)Oc1cc(O)ccc12` [Sanggenon O], the IC50 came to 1030 nM.
Compound `CC(C)=CCC/C(C)=C/Cc1c(O)cc(O)cc1-c1cc2ccc(O)cc2o1` [albafuran A] yielded an IC50 of 3510 nM.
With `Oc1cc(O)cc(-c2cc3ccc(O)cc3o2)c1` [moracin M] the figure was greater than 50000 nM; with `CC(C)(O)C1Cc2cc3cc(-c4cc(O)cc(O)c4)oc3cc2O1` (stereo unspecified) [moracin O], 0.14 nM; with `CC(C)=CCC/C(C)=C/Cc1c(O)ccc2cc(-c3cc(O)cc(O)c3CC=C(C)C)oc12` [mulberrofuran D], 4050 nM.
With `CC(C)=CCC/C(C)=C\CC/C(C)=C\Cc1c(O)cc(O)cc1-c1cc2ccc(O)cc2o1` [mulberrofuran W] the figure was 3620 nM; with `CC(C)=CC[C@]12Oc3cc(O)c([C@H]4C=C(C)C[C@H](c5ccc(O)cc5O)[C@H]4C(=O)c4ccc(O)cc4O)c(O)c3C(=O)[C@@]1(O)Oc1cc(O)ccc12` [sanggenon C], 1260 nM.

Source of the values: BindingDB's records for doi:10.1021/np800491u (Korean Research Institute of Biosciences and Biotechnology, 2009).
